From the OPERA property sets (Mansouri et al. 2018)
Values after ≈ are worked out from the molar mass of the structure shown.

conditions: not given

Row | Structure (SMILES) | solubility [mM]
1 | CCS(=O)(=O)CI | 107 (≈ 25 mg/mL)
2 | O=C(NCCc1c[nH]cn1)c1ccccc1 | 232 (≈ 50 mg/mL)
3 | O=C(O)C(Cl)(Cl)CCCl | 261 (≈ 50 mg/mL)
4 | O=S(=O)(O)c1ccc(/N=N/c2c(O)ccc3ccccc23)c2ccccc12 | 68.7 (≈ 26 mg/mL)
5 | N[C@@H](Cc1cc([N+](=O)[O-])c(O)c([N+](=O)[O-])c1)C(=O)O | 30.7 (≈ 8.33 mg/mL)
6 | Cn1cc(I)ccc1=O | 979 (≈ 230 mg/mL)
7 | CCC(Cl)(CC)C(N)=O | 93.6 (≈ 14 mg/mL)
8 | CCOC(=O)c1c(C(=O)O)ccc(OC)c1OC | 5.58 (≈ 1.42 mg/mL)
9 | O=C(OC1CCNCC1)c1ccccc1 | 48.7 (≈ 10 mg/mL)
10 | O=S(=O)(O)c1cc(O)c2cc(Nc3ccccc3)ccc2c1 | 10.6 (≈ 3.33 mg/mL)
11 | CCN(CC)CN(CC)CC | 632 (≈ 100 mg/mL)
12 | Cn1cnc2nc(Cl)nc(NN)c21 | 72 (≈ 14.3 mg/mL)
13 | CNCl | 1910 (≈ 125 mg/mL)
14 | O=C1CN(CO)C(=O)CN1CO | 383 (≈ 66.7 mg/mL)
15 | O=S(=O)(CCCl)CCOCCS(=O)(=O)CCCl | 11.5 (≈ 3.75 mg/mL)
16 | CN1C(=O)C(N)C(=S)N(C)C1=O (centres undefined) | 76.4 (≈ 14.3 mg/mL)
17 | Cc1nn(-c2ccccc2)c(N)c1C | 21.4 (≈ 4 mg/mL)

Row | Structure (SMILES) | solubility [mM]
18 | Cc1ccc(NO)cc1 | 162 (≈ 20 mg/mL)
19 | CC(=O)C(=Cc1ccccc1)CC(=O)O | 24.5 (≈ 5 mg/mL)
20 | O=C(O)CCCNC(=O)c1ccccc1 | 62.7 (≈ 13 mg/mL)
21 | Cc1cc(C)c(C)c(C)n1 | 49.3 (≈ 6.67 mg/mL)
22 | O=C(Cc1ccccc1)c1ccc(O)cc1 | 31.6 (≈ 6.7 mg/mL)
23 | CC(C)CCOCC(O)CO (centres undefined) | 61.6 (≈ 10 mg/mL)
24 | CCOC(=O)N[C@@H](C=O)[C@@H](O)[C@H](O)[C@H](O)CO | 1300 (≈ 327 mg/mL)
25 | NC(=O)C=Cc1ccccc1[N+](=O)[O-] | 52 (≈ 10 mg/mL)
26 | NCCc1ccc(O)c([N+](=O)[O-])c1 | 45.7 (≈ 8.33 mg/mL)
27 | CC(S(C)(=O)=O)S(C)(=O)=O | 38.1 (≈ 7.1 mg/mL)
28 | CC(C)(S(C)(=O)=O)S(C)(=O)=O | 35.4 (≈ 7.1 mg/mL)
29 | CCCSS(=O)CCC (centres undefined) | 120 (≈ 20 mg/mL)
30 | CC(C)SS(=O)C(C)C (centres undefined) | 150 (≈ 25 mg/mL)
31 | CC(=O)OCCCOC(C)=O | 624 (≈ 100 mg/mL)
32 | O=S(=O)(O)c1ncc[nH]1 | 844 (≈ 125 mg/mL)
33 | CC(C)(NC(=O)c1ccccc1)C(N)=O | 24.2 (≈ 5 mg/mL)

same assay, conditions: 20 °C

Row | Structure (SMILES) | solubility [mM]
34 | OCc1c(Cl)c(Cl)c(Cl)c(Cl)c1Cl | 0.00713 (≈ 0.002 mg/mL)
35 | CC=C(CCCC)C(N)=O | 42.5 (≈ 6 mg/mL)
36 | CC(C)c1nnc(NS(=O)(=O)c2ccc(N)cc2)s1 | 0.385 (≈ 0.115 mg/mL)
37 | CC(O)C(C)Cl (centres undefined) | 613 (≈ 66.6 mg/mL)
38 | NC(=O)C(N)C(O)C(=O)O (centres undefined) | 70.9 (≈ 10.5 mg/mL)
39 | C=CS(=O)(=O)Nc1ccccc1 | 31.7 (≈ 5.8 mg/mL)
40 | CC(C)Cc1ncc[nH]1 | 89.4 (≈ 11.1 mg/mL)
41 | Cn1c(=O)c2c(n(C)c1=O)n(C)c(=O)n2C | 112 (≈ 25 mg/mL)
42 | C[C@H](NC=O)C(=O)O (racemic) | 1020 (≈ 120 mg/mL)
43 | Cc1snnc1C(=O)O | 347 (≈ 50 mg/mL)
44 | Cc1ncc2nccnc2n1 | 760 (≈ 111 mg/mL)
45 | CNc1ncc2nccnc2n1 | 19.4 (≈ 3.13 mg/mL)
46 | CC(C)(C)S(=O)(=O)C(C)(C)C | 60.6 (≈ 10.8 mg/mL)
47 | Cc1ncnc2nc[nH]c12 | 1490 (≈ 200 mg/mL)
48 | Cc1cc(C(O)(c2ccc(N)cc2)c2ccc(N)cc2)ccc1N | 0.939 (≈ 0.3 mg/mL)
49 | OCC(O)C1OC(Oc2ccccc2)C(O)C(O)C1O (centres undefined) | 27.9 (≈ 8 mg/mL)
50 | CC(=O)NCC(=O)Nc1ccccc1 | 27.1 (≈ 5.2 mg/mL)
51 | CCC(C)S (centres undefined) | 14.6 (≈ 1.32 mg/mL)
52 | CCOC(C)CCO (centres undefined) | 423 (≈ 50 mg/mL)
53 | Cc1cc(C)nc(C(N)=O)n1 | 1320 (≈ 200 mg/mL)
54 | CN(C)c1ncc2nccnc2n1 | 2280 (≈ 400 mg/mL)
55 | O=C(O)C(O)C(O)c1ccccc1 (centres undefined) | 494 (≈ 90 mg/mL)
56 | CC(C)(O)CCl | 1450 (≈ 157 mg/mL)
57 | Cc1ccc(P(=O)(O)O)c(C)c1 | 80.6 (≈ 15 mg/mL)
58 | CC(=O)C1CC(CC(=O)O)C1(C)C (centres undefined) | 266 (≈ 49 mg/mL)
59 | O=c1[nH]c2cncnc2[nH]1 | 30.6 (≈ 4.17 mg/mL)

Row | Structure (SMILES) | solubility [mM]
60 | O=CCCCCCCCC(=O)O | 110 (≈ 19 mg/mL)
61 | COc1ccc2c(c1)Sc1ccc(Cl)cc1N2 | 0.0105 (≈ 0.00277 mg/mL)
62 | Cc1cc(O)c(C(=O)O)c(O)c1 | 8.92 (≈ 1.5 mg/mL)
63 | NC(=O)NC(=O)C=CC(=O)O | 12 (≈ 1.9 mg/mL)
64 | CC(C)C(CC(=O)O)C(=O)O (centres undefined) | 391 (≈ 62.7 mg/mL)
65 | COCc1ccccc1 | 24.6 (≈ 3 mg/mL)
66 | NC(=O)N/N=C/[C@H](O)[C@@H](O)[C@H](O)CO | 743 (≈ 154 mg/mL)
67 | Cc1cc(C)cc(OCC(=O)O)c1 | 4.44 (≈ 0.8 mg/mL)
68 | Ic1ccc2c(c1)Sc1ccccc1N2 | 0.000118 (≈ 3.84e-05 mg/mL)
69 | NN=c1nc[nH]c2nccnc12 | 13.7 (≈ 2.22 mg/mL)
70 | Cc1csc(=S)n1CC(=O)O | 10.9 (≈ 2.06 mg/mL)
71 | O=C(O)CNC(=O)CNS(=O)(=O)c1ccc2ccccc2c1 | 2.02 (≈ 0.65 mg/mL)
72 | CC=CCC1(C)C(=O)NC(=O)N(C)C1=O (centres undefined) | 28.5 (≈ 6 mg/mL)
73 | NC[C@H](O)C(=O)O | 148 (≈ 15.5 mg/mL)
74 | O=CC(=O)Cc1ccccc1 | 6.75 (≈ 1 mg/mL)
75 | OCc1ccc(Cl)cc1 | 17.5 (≈ 2.5 mg/mL)
76 | OCc1ccc(I)cc1 | 1.79 (≈ 0.42 mg/mL)
77 | C=CCC1(CC)C(=O)NC(=O)NC1=O | 20.5 (≈ 4.02 mg/mL)
78 | CC1(C)CO1 | 804 (≈ 58 mg/mL)
79 | CC(C)OC(=O)c1c(C(=O)O)cccc1[N+](=O)[O-] | 3.24 (≈ 0.82 mg/mL)
80 | O=C(O)c1occ(Br)c1Br | 8.15 (≈ 2.2 mg/mL)
81 | Nc1ncc2nccnc2n1 | 5.04 (≈ 0.741 mg/mL)
82 | CC[C@@H]1C(=O)O[C@H]1C | 216 (≈ 24.6 mg/mL)
83 | O=[N+]([O-])Cc1ccc2ccccc2n1 | 8.82 (≈ 1.66 mg/mL)
84 | C=CCC(C(=O)O)C(C)C(=O)O (centres undefined) | 87.1 (≈ 15 mg/mL)
